# Results from PMC7242285, “JNJ-4178 (adafosbuvir, odalasvir, and simeprevir) in Japanese patients with chronic hepatitis C virus genotype 1 or 2 infection with or without compensated cirrhosis: the Phase IIa OMEGA-3 study” (Journal of Gastroenterology, 2020).
# Where two headings read alike, the source gives them in different places.
# Assays:
# [1] = OMEGA-3: plasma pharmacokinetics (sparse sampling and Week 4 intensive sub-study); format: in vivo, human (Japanese patients)
# Experimental: Blood samples for the assessment of the plasma pharmacokinetics of adafosbuvir (and its metabolites ALS-022399 and ALS-022227), odalasvir, and simeprevir were collected in all patients pre-dose, between 2 and 4 h post-dose, and between 4 and 6 h post-dose at Weeks 2, 4, 6, and 8 (Cohort 2 only) and EOT (Weeks 8 or 12). An additional plasma sample was taken at any time during the Week-12 follow-up visit for measurement of odalasvir only.
# Additional blood samples were also obtained at Week 4 in a subgroup of patients (planned: ≥ 6 patients per cohort) who consented to intensive pharmacokinetic sampling (pharmacokinetic sub-study). Blood samples for adafosbuvir (and its metabolites ALS-022399 and ALS-022227), odalasvir, and simeprevir plasma concentrations were collected pre-dose and at 1, 2, 3, 4, 6, 8, 10, 12, and 24 h post-dose.
# Plasma concentrations of adafosbuvir, ALS-022399, ALS-022227, simeprevir, and odalasvir were determined using validated liquid chromatography–mass spectrometry methods. The LLOQ for adafosbuvir and odalasvir was 1.00 ng/mL, for ALS-022399 was 2.00 ng/mL, for ALS-022227 was 5.00 ng/mL, and for simeprevir was 20.0 ng/mL.
# Descriptive statistics for plasma concentrations of adafosbuvir (and its metabolites), odalasvir, and simeprevir were calculated at each sampling time point. Pharmacokinetic parameters were derived by non-compartmental pharmacokinetic analysis of adafosbuvir (and its metabolites), odalasvir, and simeprevir in the pharmacokinetic sub-study using actual sampling time points and plasma concentrations obtained during intensive sampling at Week 4. Graphs of the mean plasma concentration–time profiles were produced. An exploratory graphical pharmacokinetic/pharmacodynamic analysis was performed by means of scatter plots of pharmacodynamic parameters (individual PR interval [mean of the triplicate ECG measurements] and change from baseline in PR interval [Day 1 was baseline]) versus odalasvir plasma concentrations.
# HCV GTs 1–6 = test system: HCV GTs 1–6; set-up: method as in doi:10.1016/S0168-8278(17)31470-8, PMID 30070722, PMID 30325939; details: cited from earlier work
# [2] = OMEGA-3 Phase IIa study: adverse events and laboratory safety; format: in vivo, human (Japanese patients); details: given as part of JNJ-4178
# Description: The study comprised a 6-week screening phase, an 8-week (Cohort 1: patients with no cirrhosis) or 12-week (Cohort 2: patients with compensated cirrhosis) open-label treatment phase, and a 24-week post-treatment follow-up period. Given that patients with HCV and compensated cirrhosis potentially have a higher safety risk than patients without compensated cirrhosis, dosing of Cohort 2 was only initiated after all safety data had been reviewed up to Week 4 for the first six patients in Cohort 1 by an independent Data Review Committee (Fig. 1). This study was conducted in accordance with the ethical principles that have their origin in the Declaration of Helsinki and that are consistent with Good Clinical Practices and applicable regulatory requirements. The study was approved by the relevant Institutional Review Board at each study center. All patients provided written, informed consent to participate.
# Study drugs were administered orally with food at approximately the same time in the morning, each day.
# (§1) The primary endpoint was safety, including but not limited to AEs, physical examination, vital signs, 12-lead ECGs, echocardiograms, and clinical laboratory results.
# (§2) AEs were reported throughout the study from the time that informed consent to participate was received until completion of the last visit. Complete physical examination, vital signs assessments, and blood and urine sampling for clinical laboratory assessments (including hematological, serum chemistry, liver function, and urinalysis tests) were performed at screening and throughout the study. Triplicate ECGs and echocardiography were also performed at screening and during the study.
# The safety analysis was performed on the Safety Set (all patients who received at least one dose of study drug). Safety data were analyzed descriptively. AEs were coded using the Medical Dictionary for Regulatory Activities (version 20.0). Laboratory abnormalities were assessed according to the World Health Organization Toxicity Grading Scale.
# [3] = set-up: method as in PMID 29736243; details: single-dose pharmacokinetic studies (data on file) ref 24; cited from earlier work
# [4] = test system: HCV GT1, GT2, GT4, GT5, and GT6; set-up: method as in PMID 30693573, doi:10.1016/S0168-8278(12)60857-5; details: cited from earlier work
# [5] = OMEGA-3: ECG and echocardiography; format: in vivo, human (Japanese patients); details: graphical evaluation
# Description: as §1, §2
# Descriptive statistics for plasma concentrations of adafosbuvir (and its metabolites), odalasvir, and simeprevir were calculated at each sampling time point. Pharmacokinetic parameters were derived by non-compartmental pharmacokinetic analysis of adafosbuvir (and its metabolites), odalasvir, and simeprevir in the pharmacokinetic sub-study using actual sampling time points and plasma concentrations obtained during intensive sampling at Week 4. Graphs of the mean plasma concentration–time profiles were produced. […]
# HCV GT3 [6] = test system: HCV GT3; set-up: method as in PMID 30693573; details: HCV GT3 (data on file); cited from earlier work
# [7] = test system: HCV GT1, GT2, GT4, GT5, and GT6; set-up: method as in PMID 22326470; details: cited from earlier work
# CYP3A = details: cited from earlier work
# CYP1A2 = test system: CYP1A2; set-up: method as in PMID 26453968; details: cited from earlier work
# HCV GT3 [8] = test system: HCV GT3; set-up: method as in PMID 22326470; details: cited from earlier work
# [9] = Cohort 1: no cirrhosis (N = 22), 8 weeks
# [10] = Cohort 2: compensated cirrhosis (N = 11), 12 weeks
smiles,measurement,setting,value
C[C@]1(O)[C@H](n2ccc(=O)[nH]c2=O)O[C@](F)(CO)[C@H]1O [ALS-022227],"AUC24h, mean (SD)","[1]; human, in vivo",6688 (3116) ng.h/mL
same,"Cmax, mean (SD)","[1]; human, in vivo",974 (554) ng/mL
same,Steady state judged from Ctrough levels,[1]; in vivo,steady-state exposure had been reached by Week 2
CC(C)OC(=O)[C@H](C)N[P@](=O)(OC[C@@]1(F)O[C@@H](n2ccc(=O)[nH]c2=O)[C@](C)(O)[C@@H]1O)Oc1ccccc1 [adafosbuvir],Antiviral activity,HCV GTs 1–6,potent antiviral activity
same,Treatment-related AE at least possibly related to the named drug,[2]; [9],6 (27.3) n (%)
same,Treatment-related AE at least possibly related to the named drug,[2]; [10],3 (27.3) n (%)
same,Treatment-related AE at least possibly related to the named drug,[2]; Overall (N = 33),9 (27.3) n (%)
same,Plasma trough concentration (Ctrough),"[1]; all visits, both patient cohorts, LLOQ 1.00 ng/mL adafosbuvir, 2.00 ng/mL ALS-022399",below the limit of quantification
same,AUC(0-t),"[1]; human, in vivo, plasma, Week 4, intensive sampling, Cohort 2 (n=2), first value listed, read-out: AUC24h, individual value",3020 ng·h/mL
same,Cmax,"[1]; human, in vivo, plasma, Week 4, intensive sampling, Cohort 2 (n=2), first value listed, read-out: Cmax, individual value",964 ng/mL
same,AUC(0-t),"[1]; human, in vivo, plasma, Week 4, intensive sampling, Cohort 2 (n=2), second value listed, read-out: AUC24h, individual value",3030 ng·h/mL
same,Cmax,"[1]; human, in vivo, plasma, Week 4, intensive sampling, Cohort 2 (n=2), second value listed, read-out: Cmax, individual value",1430 ng/mL
same,AUC(0-t),"[1]; human, in vivo, plasma, Week 4, intensive sampling, JNJ-4178 dosing, Cohort 1: no cirrhosis (n=8), read-out: AUC24h, mean (SD)",1660 ng·h/mL
same,Cmax,"[1]; human, in vivo, plasma, Week 4, intensive sampling, JNJ-4178 dosing, Cohort 1: no cirrhosis (n=8), read-out: Cmax, mean (SD)",903 ng/mL
COC(=O)N[C@H](C(=O)N1[C@H](c2nc3cc(-c4cc5ccc4CCc4ccc(c(-c6ccc7[nH]c([C@@H]8C[C@@H]9CCCC[C@@H]9N8C(=O)[C@@H](NC(=O)OC)C(C)C)nc7c6)c4)CC5)ccc3[nH]2)C[C@@H]2CCCC[C@@H]21)C(C)C [odalasvir],Terminal elimination half-life,[3],approximately 250 h
same,Potency,[4],picomolar
same,Relationship between PR interval (absolute and change from baseline) and plasma concentrations,[5],no apparent relationship
same,Activity,HCV GT3 [6],nanomolar
same,Treatment-related AE at least possibly related to the named drug,[2]; [9],9 (40.9) n (%)
same,Treatment-related AE at least possibly related to the named drug,[2]; [10],4 (36.4) n (%)
same,Treatment-related AE at least possibly related to the named drug,[2]; Overall (N = 33),13 (39.4) n (%)
same,"AUC24h, mean (SD)","[1]; human, in vivo",6320 (1898) ng.h/mL
same,"Cmax, mean (SD)","[1]; human, in vivo",342 (113) ng/mL
same,Maximum Cmax among pharmacokinetic sub-study patients,"[1]; human, in vivo",546 ng/mL
same,Ctrough levels in Cohort 2 compared with Cohort 1,[1]; in vivo,modestly lower
same,Highest pre-dose concentration among patients,[1]; in vivo,474 to 889 ng/mL
same,Steady state judged from Ctrough levels,[1]; in vivo,steady-state conditions had not entirely been reached yet at Week 4
COc1ccc2c(O[C@@H]3C[C@H]4C(=O)N[C@]5(C(=O)NS(=O)(=O)C6CC6)C[C@H]5/C=C\CCCCN(C)C(=O)[C@@H]4C3)cc(-c3nc(C(C)C)cs3)nc2c1C [simeprevir],Antiviral activity in infected patients,[7],demonstrated antiviral activity
same,Metabolism,CYP3A,metabolized by cytochrome P450 (CYP) 3A
same,Inhibition of CYP3A,CYP3A; intestinal (not hepatic) CYP3A,mild inhibitor
same,Inhibition of CYP1A2,CYP1A2,"mild, but not clinically relevant, inhibitor"
same,Antiviral activity in infected patients,HCV GT3 [8],no antiviral activity
same,Treatment-related AE at least possibly related to the named drug,[2]; [9],6 (27.3) n (%)
same,Treatment-related AE at least possibly related to the named drug,[2]; [10],2 (18.2) n (%)
same,Treatment-related AE at least possibly related to the named drug,[2]; Overall (N = 33),8 (24.2) n (%)
same,"Ctrough, max (between-patient variability)","[1]; human, in vivo",6090 ng/mL
same,"Ctrough, min (between-patient variability)","[1]; human, in vivo",92.2 ng/mL
same,Steady state judged from Ctrough levels,"[1]; human, in vivo",steady-state exposure had been reached by Week 2
same,AUC(0-t),"[1]; human, in vivo, AUC24h, mean (SD)",26900 ng·h/mL
same,Cmax,"[1]; human, in vivo, Cmax, mean (SD)",2200 ng/mL
same,Ctrough levels in Cohort 2 compared with Cohort 1,[1]; in vivo,higher
